From patent US8669243B2, “Steroid-derived cyclopamine analogs and methods for using the same in the prevention or treatment of cancer” (The Wistar Institute, priority 2007, dated 2014)
“Also recorded” adds a separate entry of the source.

What was measured:
Format in all cases: cell-based
[1] = test system: human medulloblastoma DAOY cells; assay: DAOY cell survival, colorimetric MTT assay; details: 72 hours treatment; FIG. 6
Procedure: DAOY cells were treated for 72 hours with either cyclopamine (CYC), analog 33 or analog 37 before cell survival was assayed with a colorimetric MTT assay. Absorbance at 570 nm is directly proportional to the number of living cells.
Abnormal activation of the SHH signaling pathway has been linked to various cancers including medulloblastoma, a malignancy of the cerebellum with the highest incidence of all human pediatric malignant brain tumors. A subset of these tumors is thought to arise from deregulation of GNP development in the cerebellum and require SHH signaling for their growth. It was therefore tested whether analogs 33 and 37 were also efficient in reducing the viability of medulloblastoma cells using human medulloblastoma DAOY cells.

[2] = test system: granule neuron precursors (GNPs) purified from postnatal mouse cerebella; assay: SHH-induced granule neuron precursor (GNP) proliferation, BrdU incorporation; set-up: inhibition of SHH-induced GNP proliferation (percentage BrdU positive): dose or concentration left out as unconfirmed; details: for inhibition of SHH-induced GNP proliferation (BrdU-positive cells): 10 μM, SHH 600 ng/ml, FIG. 2; for inhibition of SHH-induced GNP proliferation (percentage BrdU positive): BrdU 6 hours before fixation, FIG. 5
Procedure: Purified GNPs were either not treated (CTR, n=4) or treated with SHH (600 ng/ml (n=4), alone or in combination with cyclopamine (10 μM, n=4), tomatidine (10 μM, n=4), analog 18 (10 μM, n=4) or estrone 15 (10 μM, n=2). BrdU-positive cells were counted with a fluorescent microscope using a 20× objective, wherein at least ten independent fields for each culture condition were counted per culture condition.
It has previously been shown that SHH is a potent mitogen for granule neuron precursors (GNPs) purified from postnatal mouse cerebella (Dahmane & Ruiz I Altaba (1999) Development 126:3089-3200). This well-established system was used to test the instant steroid-derived cyclopamine analogs for their activity in inhibiting this proliferative response of GNPs to SHH. […] GNPs were purified from postnatal day 5 (P5) mouse cerebella, plated on poly-D-lysine in serum-free DMEM-F12 and treated with either SHH alone or SHH plus the analogs. Treatment with SHH and cyclopamine was used as a control for inhibition.
GNPs were purified from postnatal day 5 (P5) mouse cerebella and treated with either SHH alone, or SHH in combination with cyclopamine, analog 33, or analog 37, each used at […]. BrdU was added to the media 6 hours before fixation. Percentage of brdU positive was determined following counting with a fluorescence microscope using a 20× objective (AXIOSKOP, ZEISS). At least five independent fields for each culture condition were counted. The analysis was performed on three independent experiments. Statistical analysis was performed with the Student t test.

[3] = test system: SHH-induced GLI-luciferase activity in SHH-Light2 cells; assay: SHH-Light2 GLI-dependent firefly luciferase reporter assay
Procedure: Shh-Light2 cells were seeded at 70% confluency in 24 wells, 24 hours prior to treatment. They were then cultured for an additional 48 hours in standard serum-containing media prior to analysis. GLI-binding site luciferase activities were measured using the luciferase reporter assay system with the luciferase kit (PROMEGA).
SHH-light2 cells were treated with SHH (600 ng/ml, R&D) alone or in combination with cyclopamine (CYC), analog 33 or analog 37. CYC, analog 33 and analog 37 were used at […].
One screen involved examining the activation of the SHH pathway using the well-established cell line, SHH-Light2 cells. This cell line is a 3T3 clone that stably expresses a GLI-dependant firefly luciferase (Taipale, et al. (2000) Nature 406:1005-1009). […] Concentrations of each analog, ranging from 20 μM to 2.5 μM, were tested. SHH-Light2 cells were seeded 24 hours prior to treatment. They were then cultured for an additional 48 hours in standard serum-containing media prior to analysis. GLI-binding site luciferase activities were measured using a commercially available luciferase reporter assay system.
The activity of analogs 33 and 37 on the SHH signaling pathway was analyzed using the SHH-Light2 cells described herein.

Row | Structure (SMILES) | cell survival / viability of DAOY cells (absorbance at 570 nm) [1] | inhibition of SHH-induced GNP proliferation (BrdU-positive cells) [2] | inhibition of SHH-induced GNP proliferation (percentage BrdU positive) [2] | inhibition of SHH-induced reporter activity ([3]; 5 μM, recombinant SHH (200 ng), 48 hours, FIGS. 3 and 4) | inhibition of SHH-induced activation of GLI-dependant firefly luciferase ([3]; 2.5 μM, recombinant SHH (200 ng), FIG. 1C) | inhibition of SHH-induced activation of GLI-dependant firefly luciferase ([3]; 5 μM, recombinant SHH (200 ng), FIG. 1B) | inhibition of SHH-induced activation of GLI-dependant firefly luciferase ([3]; 10 μM, recombinant SHH (200 ng), FIG. 1A) | inhibition of SHH signaling activity (GLI-luciferase) ([3]; SHH 600 ng/ml, FIG. 4)
1 | CC1=C2C[C@H]3[C@@H](CC=C4C[C@@H](O)CC[C@@]43C)[C@@H]2CC[C@]12O[C@@H]1C[C@H](C)CN[C@H]1[C@H]2C [cyclopamine] | significant decrease of cell survival | significantly decreased cell proliferation | blocked | largely blocked | – | – | – | –
2 | C[C@]12CC[C@@H]3c4ccc(O)cc4CC[C@H]3[C@@H]1CC[C@@]21Cc2ncccc2O1 [compound 18] | – | as potent as cyclopamine | – | – | inhibited SHH activity comparable to cyclopamine | inhibited SHH activity comparable to cyclopamine | effectively inhibited SHH activity | –
3 | C[C@]12CC[C@@H]3c4ccc(O)cc4CC[C@H]3[C@@H]1CC[C@@]21C[C@@H]([C@H]2CCCN2)O1 [compound 37] | significant decrease of cell survival; also recorded: active in reducing DAOY cells viability | – | as potent as cyclopamine; also recorded: blocked | – | – | – | – | strong inhibition of SHH signaling activity comparable to that of cyclopamine
4 | C[C@H]1CC[C@]2(NC1)O[C@H]1C[C@H]3[C@@H]4CC[C@H]5C[C@@H](O)CC[C@]5(C)[C@H]4CC[C@]3(C)[C@H]1[C@@H]2C [tomatidine, reference compound] | – | had no effect | – | – | – | – | – | –
